Assay results from patent US20020193850A1, “Use of photodynamic therapy to treat prostatic tissue” (priority 1993, published 2002).
Like-named read-outs stand apart in the source and are kept apart here. Marks after values point to notes of the source that are not given here.

How the values were obtained:
[1] = 1.0 mg/kg, 24 hours after injection
Procedure: (§1) Animals: Adult mongrel dogs were used in all experiments. Dogs were housed 1/cage and given water and canine chow (Purina Chow, Ralston Purina Corp.) ad libitum.
(§2) Photosensitive composition: The photosensitizer, tin ethyl etiopurpurin was used. The photosensitizer was administered in anesthetized (xylazine/ketamine) dogs as an emulsion via antecubital vein 24 hours prior to light treatment.
Photosensitizer extraction: The animals were injected with 1.0 mg/kg of the photosensitizer. Twenty-four hours later, prostate and other tissues were removed from euthanized animals. Tissue samples were removed from the periurethral prostate and the more peripheral regions. Additionally, the mucosa of the urethra was dissected and its photosensitizer content determined. Bladder mucosa and muscularis were also removed. Tissue was weighed and homogenized with a biohomogenizer (Biospec Products, Inc., Bartleville, Okla.) in 3% acetic acid. After homogenization, a 3:1 ethyl acetate:glacial acetic acid mixture was added and mixed vigorously. The sample was then frozen at −20° C. for at least two hours after which it was thawed and saturated sodium acetate added. The ethyl acetate layer, containing the photosensitizer, was removed and its concentration determined using absorbance spectrophotometry (Response II spectrophotomer, Gilford, Oberlin, Ohio).

R3327AT prostate tumor [2] = test: R3327AT prostate tumor model, photodynamic therapy with 659 YAG or 660 Dye laser (Example 3); type: in vivo, male Copenhagen rats; settings: 1.5 mg/kg
Procedure: The R3327AT prostate tumor model was used in male Copenhagen rats which were injected with 1.5 mg/kg body wt. of SnET2 (Tin Ethyl Etiopurpurin Emulsion, PDT Pharmaceuticals). Each rat had one flank tumor (R3327AT). After two weeks, the tumors ranged from 1.0 to 1.6 cm in length. Twenty four hours (+/−2 hrs.) after SnET2 injection the tumor area received photodynamic therapy using either a 659 YAG or 660 Dye laser fiber optically coupled to a 3-way fiber splitter.
Tumor temperatures were monitored using a 23 gge. hypodermic probe (YSI) placed percutaneously beneath the treated tumor. If needed, the tumors were cooled by a jet of cool air. Tumor diameters were measured and recorded three times per week.
Tumor growth was monitored by calculating volumes from the recorded measurements of tumor width, height and length. The rate of growth is presented as the number of days required for an individual tumor to reach 2, 5 or 10 times initial volume. This method of analysis of tumor growth accounts for variations due to differing initial tumor volume (Gibson and Hilf, Cancer Research, 1990). […] Only at the 200 Joule fluence level was there any significant difference between the YAG and Dye lasers in producing tumor growth delay.

prostatic tissue = test: Transurethral photodynamic therapy of the prostate
Procedure: as §1, §2
Light source and delivery: An LTI 660 dye laser (PDT Systems, Santa Barbara, Calif.) pumped by a KTP/YAG laser (Laserscope, San Jose, Calif.), was used as a light source. Laser light was delivered to the prostate via a 400 micron optical fiber fitted with a 2.0 cm flexible cylindrical diffuser tip (PDT Systems, Inc., Santa Barbara, Calif.).
Tissue Preparation: On removal, the prostates were photographed and then fixed in a 10% buffered formalin solution. After fixation, tissue was sectioned at 5u intervals and stained with H & E. Sections of the urinary bladder were removed and prepared in a similar manner.
Prostate treatment: The animals were injected with 1.0 mg/kg of the photosensitizer. Twenty-four hours after photosensitizer administration the animals were anesthetized with intravenous sodium barbiturate. The animals were intubated and maintained on a respirator during light treatment. They were treated in the dorsolithotomy position. The 2 cm. diffusing tip of the laser fiber was localized in the prostatic urethra under transrectal ultrasound guidance. A Bruel and Kreuger 7.0 megahertz ultrasound scanner with a transrectal probe was used. The laser fiber was placed within a transparent 10F Stamey catheter (TFX Medical, Duluth, Ga.) which was used as a laser fiber carrier. The tip of the catheter was positioned immediately outside the bladder neck. Once positioned, the prostate was treated with 300 (260 mW/cm^2) joules of laser light. The animals were then recovered and returned to their cages, Indwelling catheters were not used after treatment.

R3327AT prostate tumor [3] = test: R3327AT prostate tumor model, photodynamic therapy, tumor growth delay (Example 2); type: in vivo, male Copenhagen rats; settings: drug dose 1.5 mg/kg
Procedure: The R3327AT prostate tumor model was used in male Copenhagen rats which were injected with 1.5 mg/kg body wt. of SnET2 (tin ethyl etiopurpurin Emulsion, (0.94 mg/ml) PDT Pharmaceuticals). Each rat had one flank tumor (R3327AT). After two weeks, the tumors ranged from 1.0 to 1.6 cm in length. Twenty four hours after TEP injection, the tumor area received photodynamic therapy with a light source of a KTP pumped 660 dye laser (PDT Systems). The KTP/660 dye laser was tuned to 660 nm; power density: 200 mw/cm^2; light dose: 0, 200, 300 and 400 Joules. Tumor temperatures were monitored using a 23 gge. hypodermic probe (YSI) placed percutaneously beneath the treated tumor. If needed, the tumors were cooled by a jet of cool air. Tumors were measured and recorded three times per week.
The linear regression of tumor growth (represented as tumor volume) for each rat was plotted. The number of days it took the treated tumors to reach their initial tumor volume at the time of treatment was determined by the intercept with a horizontal line drawn at the mean initial tumor volume for all groups. The mean number of days for each light/drug dose group to reach its initial tumor size is recorded in Table 3 below.

[4] = Mean +/- SD, listed as Photosensitizer, 1 mg/kg

## CCOC(=O)C1=Cc2c3nc(cc4nc(cc5[n-]c(cc6[n-]c2c(C)c6CC)c(C)c5CC)C(C)=C4CC)[C@@H](C)[C@]13CC.[Cl-].[Cl-].[Sn] (racemic) [SnET2, tin ethyl etiopurpurin]
[1]
  Tissue levels of photosensitizer compared with plasma levels: significantly greater than plasma levels
[1]; Dog 1
  Photosensitizer concentration, Bladder: 0.2 µg/g
  Photosensitizer concentration, Prostate: 2.1 * ug/g
  Photosensitizer concentration, Urethra: 0.5 µg/g
[1]; Dog 2
  Photosensitizer concentration, Bladder: 0.2 µg/g
  Photosensitizer concentration, Kidney: 2.5 µg/g
  Photosensitizer concentration, Liver: 6.7 µg/g
  Photosensitizer concentration, Muscle: 0.3 µg/g
  Photosensitizer concentration, Plasma (24-hr): 0.1 * * ug/ml
  Photosensitizer concentration, Prostate: 0.8 µg/g
  Photosensitizer concentration, Spleen: 0.8 µg/g
  Photosensitizer concentration, Urethra: 0.3 µg/g
[1]; Dog 3
  Photosensitizer concentration, Bladder: 0.2 µg/g
  Photosensitizer concentration, Kidney: 2.9 µg/g
  Photosensitizer concentration, Liver: 6.1 µg/g
  Photosensitizer concentration, Muscle: 0.2 µg/g
  Photosensitizer concentration, Plasma (24-hr): 0.1 µg/mL
  Photosensitizer concentration, Prostate: 0.9 µg/g
  Photosensitizer concentration, Spleen: 0.8 µg/g
  Photosensitizer concentration, Urethra: 0.2 µg/g
[1]; Mean +/- SD
  Photosensitizer concentration, Kidney: 2.7 ± 0.2 µg/g
  Photosensitizer concentration, Liver: 6.7 ± 0.2 µg/g
  Photosensitizer concentration, Muscle: 0.3 ± 0.1 µg/g
  Photosensitizer concentration, Plasma (24-hr): 0.1 ± 0 µg/mL
  Photosensitizer concentration, Spleen: 0.8 ± 0 µg/g
[1]; [4]
  Photosensitizer concentration, Bladder: 0.2 ± 0 µg/g
  Photosensitizer concentration, Prostate: 1.3 ± 0.6 µg/g
  Photosensitizer concentration, Urethra: 0.3 ± 0.1 µg/g
R3327AT prostate tumor [2]; 200 mw/cm^2, significant difference only at the 200 Joule fluence level
  Difference between 660 Dye and 659 YAG lasers as light source for photodynamic therapy: no consistent significant difference
R3327AT prostate tumor [2]; 659 YAG and 660 Dye lasers, 200-400 Joules, especially at the 400 Joule level
  Tumor growth delay from initial to 2 times initial volume as compared to controls: effective in delaying tumor growth
Prostatic tissue; 1.0 mg/kg, light 24 hours later, 300 joules (260 mW/cm^2), transurethral
  Prostate effects of photosensitizer and light: showed evidence of a photodynamic effect
Prostatic tissue; 3 weeks following treatment, 1.0 mg/kg, 300 joules
  Urethral mucosa: The urethral mucosa had regenerated
Prostatic tissue; 48 hours following photodynamic therapy, 1.0 mg/kg, 300 joules
  Urethral epithelium: loss of the urethral epithelium
Prostatic tissue; after photodynamic therapy, no indwelling catheter, 1.0 mg/kg, 300 joules
  Animal recovery: voiding: All animals were able to void spontaneously
Prostatic tissue; after photodynamic therapy, 1.0 mg/kg, 300 joules
  Animal recovery: hematuria: Two of the animals developed gross hematuria
Prostatic tissue; after photodynamic therapy, believed due to movement or inaccurate placement of the light guide
  Changes in the bladder: In two of the animals there were extensive changes in the bladder
Prostatic tissue; prostate removed 3 weeks following treatment, 1.0 mg/kg, 300 joules
  Histology of prostate: glandular atrophy and replacement with fibrous tissue
Prostatic tissue; prostates removed 48 hours following photodynamic therapy, 1.0 mg/kg, 300 joules
  Histologic examination of prostate around the urethra: extensive hemmorhagic necrosis
R3327AT prostate tumor [3]; Group II: light dose 0 Joules
  # of Days of Growth Delay: 0 days
R3327AT prostate tumor [3]; Group III: light dose 200 Joules, 660 nm, 200 mw/cm^2
  # of Days of Growth Delay: 6.2 ± 1.2 days
R3327AT prostate tumor [3]; Group IV: light dose 300 Joules, 660 nm, 200 mw/cm^2
  # of Days of Growth Delay: 5.8 ± 0.8 days
R3327AT prostate tumor [3]; Group V: light dose 400 Joules, 660 nm, 200 mw/cm^2
  # of Days of Growth Delay: 11.4 ± 3.7 days
